How the values were obtained:
[1] = target: T1, recombinant human CYP11B2 (Homo sapiens, UniProt P19099); test: CYP11B2 enzyme assay with enzyme enriched microsomes, aldosterone measured by LC-MS; assay type: biochemical; settings: microsomes from V79-4 cells; 11-deoxycorticosterone at Km; read-out: hCYP11B2 IC50
T1 construct: made in house; host or cells: V79-4 cells (Chinese hamster lung fibroblasts); enzyme-enriched microsomal fraction of the lysate
T1 sequence (P19099 25-503): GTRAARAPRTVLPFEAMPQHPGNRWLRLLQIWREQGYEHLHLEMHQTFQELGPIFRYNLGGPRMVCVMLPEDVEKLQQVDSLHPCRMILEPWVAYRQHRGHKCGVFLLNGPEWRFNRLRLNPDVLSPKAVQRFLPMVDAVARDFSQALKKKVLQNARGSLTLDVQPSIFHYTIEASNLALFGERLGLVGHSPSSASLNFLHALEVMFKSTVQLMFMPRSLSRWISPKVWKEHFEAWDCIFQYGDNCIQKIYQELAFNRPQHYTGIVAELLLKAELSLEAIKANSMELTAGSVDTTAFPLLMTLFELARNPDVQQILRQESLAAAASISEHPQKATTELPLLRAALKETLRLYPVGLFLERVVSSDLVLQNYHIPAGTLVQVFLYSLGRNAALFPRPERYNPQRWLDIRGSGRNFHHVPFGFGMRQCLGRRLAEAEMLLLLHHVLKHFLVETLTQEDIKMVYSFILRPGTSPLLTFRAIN
Description: (§1) V79-4 cells expressing recombinant andrenodoxin and andrenodoxin reductase with either recombinant human CYP11B2 or CYP11B1 were prepared according to methods previously described (LaSala et al 2009 Anal Bioch 394:56-61). An enzyme enriched microsomal fraction was prepared from cellular lysates and subsequently used as the enzyme source for determining inhibitor IC50s. The substrate Km values were experimentally determined for 11-deoxycorticosterone (CYP11B2 substrate) and 11-deoxycortisol (CYP11B1 substrate). Enzyme assays for inhibitor screening employed CYP11B2 and CYP11B1 enzyme enriched microsomes and were run at the Km of the respective substrates. Products of the enzyme reactions, aldosterone for CYP11B2 or cortisol for CYP11B1, were measured by LC-MS. Assays were run under conditions of less than 20% substrate turnover. Inhibitor IC50s were generated by determining the product formation in the absence or presence of inhibitor at various concentrations. In the absence of the test compound, the product formed (Pt) in each data set was defined as 100% activity. In the absence of enzyme, the product formed (Pb) in each data set was defined as 0% activity. The percent activity in the presence of each inhibitor was calculated according to the following equation: % activity=(P−Pb)/(Pt−Pb), where P=the product formed in the presence of the inhibitor. The IC50 value was defined as the inhibitor concentration causing a 50% decrease in activity relative to the no inhibitor control reaction.

[2] = target: T2, recombinant human CYP11B1 (Homo sapiens, UniProt P15538); test: CYP11B1 enzyme assay with enzyme enriched microsomes, cortisol measured by LC-MS; assay type: biochemical; settings: microsomes from V79-4 cells; 11-deoxycortisol at Km; read-out: hCYP11B1 IC50
T2 construct: made in house; host or cells: V79-4 cells (Chinese hamster lung fibroblasts); enzyme-enriched microsomal fraction of the lysate
T2 sequence (P15538 25-503): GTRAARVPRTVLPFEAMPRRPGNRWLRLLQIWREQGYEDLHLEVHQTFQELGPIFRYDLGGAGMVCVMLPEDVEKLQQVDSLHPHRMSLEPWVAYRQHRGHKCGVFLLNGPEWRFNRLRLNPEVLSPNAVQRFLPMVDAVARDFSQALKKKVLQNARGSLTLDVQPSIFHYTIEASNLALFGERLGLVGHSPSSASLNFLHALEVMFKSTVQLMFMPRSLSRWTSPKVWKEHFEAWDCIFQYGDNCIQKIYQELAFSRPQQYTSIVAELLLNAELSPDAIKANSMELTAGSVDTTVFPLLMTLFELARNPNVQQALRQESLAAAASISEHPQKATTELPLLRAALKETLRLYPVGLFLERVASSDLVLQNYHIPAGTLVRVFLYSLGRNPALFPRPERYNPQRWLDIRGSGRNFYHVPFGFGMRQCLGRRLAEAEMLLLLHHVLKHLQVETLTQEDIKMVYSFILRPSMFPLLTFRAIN
Description: as §1

Row | Compound | IC50 [1] | IC50 [2]
1 | COc1ccc2ncn(-c3nc4ccc(F)cc4n3C3CC3)c2c1 [Example 13, 1′-cyclopropyl-6′-fluoro-6-methoxy-1′H-1,2′-bibenzo[d]imidazole] | 1 to 100 nM | 100 to 1000 nM
2 | CCc1ccc2c(c1)ncn2-c1nc2ccc(F)cc2n1C1CC1 [Example 10, 1′-cyclopropyl-5-ethyl-6′-fluoro-1′H-1,2′-bibenzo[d]imidazole] | 1 to 100 nM | 100 to 1000 nM
3 | Fc1cc2nc(-n3cnc4cc(OC(F)F)ccc43)n(C3CC3)c2cc1F [Example 52, 1′-cyclopropyl-5-(difluoromethoxy)-5′,6′-difluoro-1′H-1,2′-bibenzo[d]imidazole] | 1 to 100 nM | 100 to 1000 nM
4 | Fc1ccc2c(c1)ncn2-c1nc2ccc(F)cc2n1C1CC1 [Example 18, 1′-cyclopropyl-5,6′-difluoro-1′H-1,2′-bibenzo[d]imidazole] | 1 to 100 nM | 100 to 1000 nM
5 | Fc1cc2nc(-n3cnc4cnccc43)n(C3CC3)c2cc1F [Example 35, 1-(1-cyclopropyl-5,6-difluoro-1H-benzo[d]imidazol-2-yl)-1H-imidazo[4,5-c]pyridine] | 1 to 100 nM | 1000 to 10000 nM
6 | Fc1ccc2nc(-n3cnc4ccc(OC(F)(F)F)cc43)n(C3CC3)c2c1 [Example 28, 1′-cyclopropyl-6′-fluoro-6-(trifluoromethoxy)-1′H-1,2′-bibenzo[d]imidazole] | 100 to 1000 nM | > 10000 nM
7 | Cc1ccc2c(c1)ncn2-c1nc2ccc(F)cc2n1C1CC1 [Example 8, 1′-cyclopropyl-6′-fluoro-5-methyl-1′H-1,2′-bibenzo[d]imidazole] | 1 to 100 nM | 100 to 1000 nM
8 | Fc1ccc2ncn(-c3nc4ccc(F)cc4n3C3CC3)c2c1 [Example 19, 1′-cyclopropyl-6,6′-difluoro-1′H-1,2′-bibenzo[d]imidazole] | 1 to 100 nM | 1000 to 10000 nM

Results, then the compound that gave them:

Row | IC50 [1] | IC50 [2] | Compound
9 | 1000 to 10000 nM | > 10000 nM | Fc1ccc2nc(-n3cnc4c(F)c(F)ccc43)n(C3CC3)c2c1 [Example 3, 1′-cyclopropyl-4,5,6′-trifluoro-1′H-1,2′-bibenzo[d]imidazole]
10 | 1 to 100 nM | 1000 to 10000 nM | Fc1cc2nc(-n3cnc4ccc(OC(F)F)cc43)n(C3CC3)c2cc1F [Example 53, 1′-cyclopropyl-6-(difluoromethoxy)-5′,6′-difluoro-1′H-1,2′-bibenzo[d]imidazole]
11 | 1 to 100 nM | 1000 to 10000 nM | Fc1ccc2nc(-n3cnc4ccc(C(F)(F)F)cc43)n(C3CC3)c2c1 [Example 21, 1′-cyclopropyl-6′-fluoro-6-(trifluoromethyl)-1′H-1,2′-bibenzo[d]imidazole]
12 | 1 to 100 nM | > 10000 nM | CS(=O)(=O)Nc1ccc2c(c1)ncn2-c1nc2ccc(F)c(F)c2n1C1CC1 [Example 31, N-(1′-cyclopropyl-6′,7′-difluoro-1′H-[1,2′-bibenzo[d]imidazol]-5-yl) methanesulfonamide]
13 | 1 to 100 nM | 1000 to 10000 nM | CCc1ccc2ncn(-c3nc4ccc(F)cc4n3C3CC3)c2c1 [Example 11, 1′-cyclopropyl-6-ethyl-6′-fluoro-1′H-1,2′-bibenzo[d]imidazole]
14 | 100 to 1000 nM | > 10000 nM | CS(=O)(=O)Nc1ccc2c(c1)ncn2-c1nc2ccc(C#N)cc2n1C1CC1 [Example 47, N-(6′-cyano-1′-cyclopropyl-1′H-[1,2′-bibenzo[d]imidazol]-5-yl) methanesulfonamide]
15 | 1 to 100 nM | 1000 to 10000 nM | Fc1cc2ncn(-c3nc4ccc(Cl)nc4n3C3CC3)c2cc1F [Example 29, 5-chloro-3-cyclopropyl-2-(5,6-difluoro-1H-benzo[d]imidazol-1-yl)-3H-imidazo[4,5-b] pyridine]
16 | 1 to 100 nM | 1000 to 10000 nM | N#Cc1ccc2c(c1)ncn2-c1nc2cc(F)c(F)cc2n1C1CC1 [Example 23, 1′-cyclopropyl-5′,6′-difluoro-1′H-[1,2′-bibenzo[d]imidazole]-5-carbonitrile]
17 | 1000 to 10000 nM | > 10000 nM | CS(=O)(=O)Nc1ccc2ncn(-c3nc4ccc(C#N)cc4n3C3CC3)c2c1 [Example 48, N-(6′-cyano-1′-cyclopropyl-1′H-[1,2′-bibenzo[d]imidazol]-6-yl) methanesulfonamide]
18 | 1 to 100 nM | 100 to 1000 nM | COc1ccc2c(c1)ncn2-c1nc2ccc(F)cc2n1C1CC1 [Example 12, 1′-cyclopropyl-6′-fluoro-5-methoxy-1′H-1,2′-bibenzo[d]imidazole]
19 | 1 to 100 nM | 1000 to 10000 nM | Fc1cc2ncn(-c3nc4ccc(Cl)cc4n3C3CC3)c2cc1F [Example 26, 6′-chloro-1′-cyclopropyl-5,6-difluoro-1′H-1,2′-bibenzo[d]imidazole]
20 | 100 to 1000 nM | > 10000 nM | CS(=O)(=O)Nc1ccc2c(c1)ncn2-c1nc2cc(F)c(F)cc2n1C1CC1 [Example 46, N-(1′-cyclopropyl-5′,6′-difluoro-1′H-[1,2′-bibenzo[d]imidazol]-5-yl) methanesulfonamide]

— patent US12358893B2, “Metalloenzyme inhibitor compounds” (Corxel Pharmaceuticals Hong Kong Limited, priority 2019, dated 2025)
